Values quoted from earlier work in US20100009005A1, “Novel acetysalicylic acid formulations” (Flamel Technologies ,S.A., priority 2005, published 2010).

CS(=O)(=O)c1ccc(C2=C(c3ccccc3)C(=O)OC2)cc1 [rofecoxib]
time of peak plasma concentrations (after oral administration): 2 to 3 h | half life (in vivo): about 17 hours
